Experiment [1] deals with T1, glucagon receptor (Homo sapiens, UniProt P47871).
T1 construct: expressed in transfected cells; host or cells: HEK293
Nature of the experiment: cAMP induction, firefly luciferase reporter assay in HEK293 cells co-transfected with receptor. It is filed as cell-based. Conditions: Table 2, analogs of SEQ ID NO: 10. The protocol:
(§1) The ability of glucagon analogs to induce cAMP was measured in a firefly luciferase-based reporter assay. […] At the end of the incubation 100 microliters of LucLite luminescence substrate reagent (Perkin-Elmer, Wellesley, Mass.) were added to each well. […] Effective 50% concentrations were calculated by using Origin software (OriginLab, Northampton, Mass.
A general note: In a reporter assay the amount or activity of a reporter protein is the signal.

Experiment [2] addresses T2, GIP receptor (Homo sapiens, UniProt P48546).
T2 construct: expressed in transfected cells; host or cells: HEK293
T2 sequence (P48546 22-466): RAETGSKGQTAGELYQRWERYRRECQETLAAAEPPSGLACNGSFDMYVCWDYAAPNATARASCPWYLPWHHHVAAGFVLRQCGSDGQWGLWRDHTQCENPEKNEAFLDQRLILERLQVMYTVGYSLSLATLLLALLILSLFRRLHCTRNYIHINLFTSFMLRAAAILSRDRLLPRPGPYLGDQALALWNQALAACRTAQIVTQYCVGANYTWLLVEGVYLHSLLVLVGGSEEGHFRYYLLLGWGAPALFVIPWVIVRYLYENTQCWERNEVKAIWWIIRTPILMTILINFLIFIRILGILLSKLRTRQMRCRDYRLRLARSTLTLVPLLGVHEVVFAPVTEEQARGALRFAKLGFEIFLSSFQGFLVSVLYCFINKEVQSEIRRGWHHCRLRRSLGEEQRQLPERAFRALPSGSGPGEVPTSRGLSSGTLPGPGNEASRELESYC
The experiment is described as above. It is filed as cell-based. Conditions: Table 2, analogs of SEQ ID NO: 10. How it is done:
as §1

Experiment [3] concerns the target T3, GLP-1 receptor (Homo sapiens, UniProt P43220).
T3 construct: expressed in transfected cells; host or cells: HEK293
Described as above. It is filed as cell-based. The following applies: Table 2, analogs of SEQ ID NO: 10. The protocol:
as §1

Experiment [4] concerns the target T2, GIP receptor. Conditions: relative to native GIP; cited from earlier work.

A word on the EC50: it is the concentration that produces a half-maximal response.

Numbered stars: 1 amine (or outer) side, 2 acyl side, 3 side chain; on linkers, the order of the positions; unused ones are H or OH. Square brackets hold non-standard residues; d marks the D form. Side chains are listed from the residue outwards. Peptide text beside a SMILES is read from it. * marks the point of attachment. γGlu = O=C(O)[C@H](CCC(=O)[*:2])N[*:1]; Desaminotyrosyl = O=C(CCc1ccc(O)cc1)*; Palmitoyl = CCCCCCCCCCCCCCCC(=O)*

T3 sequence (P43220 24-463): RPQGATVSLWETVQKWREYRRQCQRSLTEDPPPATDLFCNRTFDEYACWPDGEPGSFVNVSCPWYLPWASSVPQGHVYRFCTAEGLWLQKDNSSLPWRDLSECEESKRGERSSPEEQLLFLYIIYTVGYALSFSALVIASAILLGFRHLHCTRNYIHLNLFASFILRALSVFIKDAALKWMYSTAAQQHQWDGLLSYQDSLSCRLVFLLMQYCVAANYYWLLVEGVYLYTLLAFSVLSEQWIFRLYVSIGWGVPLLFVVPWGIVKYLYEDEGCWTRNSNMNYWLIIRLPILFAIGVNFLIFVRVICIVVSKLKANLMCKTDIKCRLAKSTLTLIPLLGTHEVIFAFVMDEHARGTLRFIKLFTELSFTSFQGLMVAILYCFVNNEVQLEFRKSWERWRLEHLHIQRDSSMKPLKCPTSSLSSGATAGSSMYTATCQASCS
T1 sequence (P47871 26-477): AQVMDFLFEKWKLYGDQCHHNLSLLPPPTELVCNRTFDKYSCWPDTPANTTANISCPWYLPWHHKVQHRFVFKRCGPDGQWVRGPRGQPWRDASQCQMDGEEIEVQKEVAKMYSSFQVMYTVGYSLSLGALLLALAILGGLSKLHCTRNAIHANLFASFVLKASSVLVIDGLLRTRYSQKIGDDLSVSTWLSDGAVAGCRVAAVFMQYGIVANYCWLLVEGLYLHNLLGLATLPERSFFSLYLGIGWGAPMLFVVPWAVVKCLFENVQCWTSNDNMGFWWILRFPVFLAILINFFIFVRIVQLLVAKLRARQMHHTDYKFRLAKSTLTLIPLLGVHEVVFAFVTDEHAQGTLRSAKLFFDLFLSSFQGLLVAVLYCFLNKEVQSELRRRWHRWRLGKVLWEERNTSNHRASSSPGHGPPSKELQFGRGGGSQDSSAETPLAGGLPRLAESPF

For `CCCCCCCCCCCCCCCC(=O)N[C@@H](CCC(=O)NCCCC[C@H](NC(=O)[C@H](CC(=O)O)NC(=O)[C@H](CO)NC(=O)[C@@H](NC(=O)[C@H](Cc1ccccc1)NC(=O)[C@@H](NC(=O)CNC(=O)[C@@H](CCC(N)=O)NC(=O)[C@H](C)NC(=O)[C@H](Cc1ccc(O)cc1)NC(C)=O)[C@@H](C)O)[C@@H](C)O)C(=O)N[C@@H](CO)C(=O)N[C@@H](CCCCN)C(=O)N[C@@H](Cc1ccc(O)cc1)C(=O)N[C@@H](CC(C)C)C(=O)N[C@@H](CC(=O)O)C(=O)N[C@@H](CCC(=O)O)C(=O)N[C@@H](CCCNC(=N)N)C(=O)N[C@@H](C)C(=O)N[C@@H](C)C(=O)N[C@@H](CCC(N)=O)C(=O)N[C@@H](CC(=O)O)C(=O)N[C@@H](Cc1ccccc1)C(=O)N[C@H](C(=O)N[C@@H](CCC(N)=O)C(=O)N[C@@H](Cc1c[nH]c2ccccc12)C(=O)N[C@@H](CC(C)C)C(=O)N[C@@H](CC(C)C)C(=O)N[C@@H](CCC(=O)O)C(=O)NCC(=O)NCC(=O)N1CCC[C@H]1C(=O)N[C@@H](CO)C(=O)N[C@@H](CO)C(=O)NCC(=O)N[C@@H](C)C(=O)N1CCC[C@H]1C(=O)N1CCC[C@H]1C(=O)N1CCC[C@H]1C(=O)N[C@@H](CO)C(N)=O)C(C)C)C(=O)O` [compound 158] (Ac-YA[dQ]GTFTSDK([γGlu-Palmitoyl])SKYLDERAAQDFVQWLLEGGPSSGAPPPS-NH2), the EC50 in experiment [1] was found to be 0.416 nM; in experiment [2], 0.069 nM; in experiment [3], 0.349 nM.

Consider `CCCCCCCCCCCCCCCC(=O)N[C@@H](CCC(=O)N[C@@H](CCC(=O)NCCCC[C@H](NC(=O)[C@H](CO)NC(=O)[C@@H]1CCCN1C(=O)[C@@H]1CCCN1C(=O)[C@@H]1CCCN1C(=O)[C@H](C)NC(=O)CNC(=O)[C@H](CO)NC(=O)[C@H](CO)NC(=O)[C@@H]1CCCN1C(=O)CNC(=O)CNC(=O)[C@H](CCC(=O)O)NC(=O)[C@H](CC(C)C)NC(=O)[C@H](CC(C)C)NC(=O)[C@H](Cc1c[nH]c2ccccc12)NC(=O)[C@H](CCC(N)=O)NC(=O)[C@@H](NC(=O)[C@H](Cc1ccccc1)NC(=O)[C@H](CC(=O)O)NC(=O)[C@H](CCC(N)=O)NC(=O)[C@H](C)NC(=O)[C@H](C)NC(=O)[C@H](CCCNC(=N)N)NC(=O)[C@H](CCC(=O)O)NC(=O)[C@H](CC(=O)O)NC(=O)[C@H](CC(C)C)NC(=O)[C@H](Cc1ccc(O)cc1)NC(=O)[C@H](CCCCN)NC(=O)[C@H](CO)NC(=O)[C@H](Cc1ccc(O)cc1)NC(=O)[C@H](CC(=O)O)NC(=O)[C@H](CO)NC(=O)[C@@H](NC(=O)[C@H](Cc1ccccc1)NC(=O)[C@@H](NC(=O)CNC(=O)[C@H](CCC(N)=O)NC(=O)[C@H](C)NC(=O)CCc1ccc(O)cc1)[C@@H](C)O)[C@@H](C)O)C(C)C)C(=O)NCC(N)=O)C(=O)O)C(=O)O` [compound 160] (Desaminotyrosyl-AQGTFTSDYSKYLDERAAQDFVQWLLEGGPSSGAPPPSK([γGlu-γGlu-Palmitoyl])G-NH2), for which the EC50 in experiment [1] was 0.049 nM; in experiment [2] it was 0.086 nM; in experiment [3] it was 0.022 nM.

With “Ac-[dY]AQGTFTSDYSKYLDERAAQDFVQWLLEAGPSSGAPPPSK([γGlu-γGlu-Palmitoyl])G-NH2 [compound 159]”, the figures for the EC50 in experiment [1], in experiment [2] and in experiment [3] were 0.04 nM, 0.08 nM and 0.009 nM, respectively.

For the compound “Ac-[dY]AQGTFTSDYSKYLDERAAQDFVQWLLEGGPSSGAPPPSK([γGlu-γGlu-Palmitoyl])G-NH2 [compound 149]”, the EC50 in experiment [1] turned out to be 0.012 nM; in experiment [2] it was 0.008 nM; in experiment [3], 0.002 nM.

On to “Native glucagon: native human glucagon (SEQ ID NO: 1)”, for which the “activity of native GIP at the GIP receptor” value in experiment [4] was approximately 0%.
